In PMC4660213, “Identification and characterization of multiple rubisco activases in chemoautotrophic bacteria” (Nature Communications, 2015):

Legend:
Type in all cases: biochemical
AfM [1] = target: T1, AfM (Acidithiobacillus ferrooxidans, UniProt B7J5E3); assay: spectrophotometric coupled rubisco assay; details: pH 8.0, 25 °C, 1 mM RuBP, 5 mM NaHCO3, 5 mM MgCl2; substrate of ECM, also inhibits the apoenzyme (loose ER complex)
T1 construct: gene cbbL2; His6-ubiquitin fusion cleaved to native N terminus, E. coli BL21 (DE3), hexamer (L6), 313 kDa measured
T1 sequence (B7J5E3 entry or part of it): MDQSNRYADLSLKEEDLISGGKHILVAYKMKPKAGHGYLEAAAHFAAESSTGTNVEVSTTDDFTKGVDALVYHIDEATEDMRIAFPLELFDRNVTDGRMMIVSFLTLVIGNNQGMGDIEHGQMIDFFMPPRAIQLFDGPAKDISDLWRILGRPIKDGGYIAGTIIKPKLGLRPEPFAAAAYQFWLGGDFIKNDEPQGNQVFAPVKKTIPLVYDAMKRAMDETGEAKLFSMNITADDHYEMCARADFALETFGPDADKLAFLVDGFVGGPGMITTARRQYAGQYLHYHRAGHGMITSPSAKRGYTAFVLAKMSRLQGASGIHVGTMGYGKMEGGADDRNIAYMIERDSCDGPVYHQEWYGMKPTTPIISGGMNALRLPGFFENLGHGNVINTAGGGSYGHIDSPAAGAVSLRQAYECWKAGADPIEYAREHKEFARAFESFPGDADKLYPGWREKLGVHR

AfQ2 = target: T2, AfQ2 (Acidithiobacillus ferrooxidans, UniProt B7J5E4); assay: coupled ATPase assay (NADH oxidation); details: 25 °C; basal, no rubisco
T2 construct: gene cbbQ-2; His6-ubiquitin fusion cleaved to native N terminus, E. coli, homohexamer, 173 kDa measured
T2 sequence (B7J5E4 entry or part of it): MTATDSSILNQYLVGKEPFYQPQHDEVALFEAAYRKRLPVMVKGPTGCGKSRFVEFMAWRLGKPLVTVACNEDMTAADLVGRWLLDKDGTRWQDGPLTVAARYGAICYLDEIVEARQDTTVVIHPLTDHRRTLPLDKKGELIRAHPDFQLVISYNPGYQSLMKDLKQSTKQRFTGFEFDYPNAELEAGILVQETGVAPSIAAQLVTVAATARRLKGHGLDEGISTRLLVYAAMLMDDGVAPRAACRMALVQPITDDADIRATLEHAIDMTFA

Q2O2 [2] = target: T3, Q2O2 (Acidithiobacillus ferrooxidans, UniProt B7J5E4, W83F); assay: coupled ATPase assay (NADH oxidation); details: 25 °C; basal, no rubisco
T3 construct: gene cbbQ-2; co-expressed His6-ubiquitin fusions cleaved, E. coli, CbbQ6CbbO1 hetero-oligomer, 285 kDa measured
T3 sequence (B7J5E4 entry or part of it W83F): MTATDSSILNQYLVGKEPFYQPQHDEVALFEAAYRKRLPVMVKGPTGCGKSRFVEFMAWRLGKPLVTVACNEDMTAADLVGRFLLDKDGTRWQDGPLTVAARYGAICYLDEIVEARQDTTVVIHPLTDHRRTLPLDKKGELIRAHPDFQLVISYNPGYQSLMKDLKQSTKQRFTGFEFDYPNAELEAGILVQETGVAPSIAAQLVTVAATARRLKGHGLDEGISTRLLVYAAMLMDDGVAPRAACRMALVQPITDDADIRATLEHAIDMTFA
T3 sequence (B7J5E5 entry or part of it, stated change not applied, further chain): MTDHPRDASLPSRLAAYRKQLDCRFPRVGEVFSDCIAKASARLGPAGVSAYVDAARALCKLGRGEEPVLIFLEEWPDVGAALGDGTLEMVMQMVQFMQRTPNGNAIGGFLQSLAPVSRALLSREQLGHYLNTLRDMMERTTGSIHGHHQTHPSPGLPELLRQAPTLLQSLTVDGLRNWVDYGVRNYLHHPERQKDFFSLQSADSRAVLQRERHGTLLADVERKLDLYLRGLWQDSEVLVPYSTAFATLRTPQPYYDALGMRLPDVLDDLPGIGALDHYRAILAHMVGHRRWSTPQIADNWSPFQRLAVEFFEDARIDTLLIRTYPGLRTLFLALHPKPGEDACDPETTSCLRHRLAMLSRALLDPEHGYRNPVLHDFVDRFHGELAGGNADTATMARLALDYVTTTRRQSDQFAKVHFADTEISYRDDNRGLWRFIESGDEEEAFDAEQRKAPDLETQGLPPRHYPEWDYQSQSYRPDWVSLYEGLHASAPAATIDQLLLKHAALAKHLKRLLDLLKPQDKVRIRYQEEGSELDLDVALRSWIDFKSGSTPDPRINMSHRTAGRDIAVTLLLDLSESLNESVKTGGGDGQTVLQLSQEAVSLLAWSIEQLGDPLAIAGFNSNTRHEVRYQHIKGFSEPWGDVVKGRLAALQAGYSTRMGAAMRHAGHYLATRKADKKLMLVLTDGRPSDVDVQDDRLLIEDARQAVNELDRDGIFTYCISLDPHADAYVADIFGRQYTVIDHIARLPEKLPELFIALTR

Q2O2 [3] = target: T4, Q2O2 (Acidithiobacillus ferrooxidans, UniProt B7J5E4, W83L); assay: coupled ATPase assay (NADH oxidation); details: 25 °C; basal, no rubisco
T4 construct: gene cbbQ-2; co-expressed His6-ubiquitin fusions cleaved, E. coli, CbbQ6CbbO1 hetero-oligomer, 285 kDa measured
T4 sequence (B7J5E4 entry or part of it W83L): as the sequence (B7J5E4 entry or part of it W83F) above, with F83L counted along it
T4 sequence (B7J5E5 entry or part of it, stated change not applied, further chain): as the sequence (B7J5E5 entry or part of it, stated change not applied, further chain) above

AfM [4] = target: T1, AfM; assay: spectrophotometric coupled rubisco assay of ECMC complex; details: activated enzyme (ECM) preincubated with fourfold excess of carboxypentitol bisphosphate (1:1 CABP and carboxyribitol isomer); pH 8.0, 25 °C, 20 mM NaHCO3, Mg2+; active site but 5 mM NaHCO3
AfLS = target: T5, AfLS (Acidithiobacillus ferrooxidans, UniProt B7JA24); assay: as above; details: activated enzyme (ECM) preincubated with fourfold excess of carboxypentitol bisphosphate (1:1 CABP and carboxyribitol isomer); pH 8.0, 25 °C, 20 mM NaHCO3, Mg2+; active site
T5 construct: gene cbbL2; cbbLS in pET30b, E. coli BL21, ion exchange and gel filtration, L8S8 hexadecamer, predicted 530 kDa; with Ribulose bisphosphate carboxylase small subunit
T5 sequence (B7JA24 whole entry): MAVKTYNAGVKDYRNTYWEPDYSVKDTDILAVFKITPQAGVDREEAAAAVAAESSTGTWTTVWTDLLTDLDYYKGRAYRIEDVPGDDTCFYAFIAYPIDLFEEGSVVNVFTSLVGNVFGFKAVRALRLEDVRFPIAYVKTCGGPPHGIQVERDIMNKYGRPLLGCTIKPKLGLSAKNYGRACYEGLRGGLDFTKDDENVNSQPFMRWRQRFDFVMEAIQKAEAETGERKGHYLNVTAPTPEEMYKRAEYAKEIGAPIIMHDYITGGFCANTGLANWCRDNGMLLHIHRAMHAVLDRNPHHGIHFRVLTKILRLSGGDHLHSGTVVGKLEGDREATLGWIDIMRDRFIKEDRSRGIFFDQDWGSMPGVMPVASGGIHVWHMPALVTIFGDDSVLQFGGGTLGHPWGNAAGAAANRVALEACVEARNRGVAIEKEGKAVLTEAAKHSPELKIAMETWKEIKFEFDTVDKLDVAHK
T5 sequence (B7JA25 1-118 partner): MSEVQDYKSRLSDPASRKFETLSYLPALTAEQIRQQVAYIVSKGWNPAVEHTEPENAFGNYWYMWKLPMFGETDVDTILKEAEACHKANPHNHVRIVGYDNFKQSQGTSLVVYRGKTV

O=C(COP(=O)(O)O)[C@H](O)[C@H](O)COP(=O)(O)O [RuBP, ribulose-1,5-bisphosphate]
spectrophotometric coupled rubisco assay (AfM [1]): the activities of both AfM ECM and ER rapidly converged to a low rate

Nc1ncnc2c1ncn2[C@@H]1O[C@H](COP(=O)(O)OP(=O)(O)OP(=O)(O)O)[C@@H](O)[C@H]1O [ATP]
coupled ATPase assay (NADH oxidation) (AfQ2): Both AfQ2 and Q2O2ΔC444 displayed a low ATPase activity
coupled ATPase assay (NADH oxidation) (Q2O2 [2]): The W83L and W83F mutants displayed three and twofold increased basal ATPase activities
coupled ATPase assay (NADH oxidation) (Q2O2 [3]): The W83L and W83F mutants displayed three and twofold increased basal ATPase activities

O=C(O)[C@@](O)(COP(=O)(O)O)[C@H](O)[C@H](O)COP(=O)(O)O (mixture of isomers) [CABP, carboxyarabinitol-1,5-bisphosphate]
spectrophotometric coupled rubisco assay of ECMC complex (AfM [4]): AfM bound to the transition state analogue CABP (ECMC) formed stable and inactive complexes
spectrophotometric coupled rubisco assay of ECMC complex (AfLS): the form I (AfLS) ER and ECMC complexes were inactive
